Assay results taken from US11459336B2, “Pyrazine carbamates and their use as GluN2B receptor modulators” (JANSSEN PHARMACEUTICA NV, priority 2019, dated 2022).

Experiments:
[1] = biological target: T1, human GluN1/GluN2B NMDA receptors (Homo sapiens, UniProt Q05586+Q13224); assay: Calcium flux (FLIPR) assay on cloned human GluN1/GluN2B ion channels expressed in mammalian cells, standard assay; assay type: cell-based; conditions: glutamate ~EC40, 10 μM glycine, stable cell line with Tet-On induced expression
T1 construct: expressed in transfected cells
Description: (§1) NMDA receptors are ion channels that are highly permeable to Ca^2+ ions, rendering it possible to monitor NMDA receptor function using cell-based calcium flux assay. In this assay, co-agonists glutamate and glycine are added to cells heterologously expressing human GluN1/GluN2B NMDA receptors to initiate cellular Ca^2+ influx. The time course of the changes in intracellular calcium is measured using a fluorescent dye and a FLIPR (Fluorometric Imaging Plate Reader) device.
(§2) Twenty four hours before measurements, the expression of the NMDA receptors in the stable cell line is induced with Tet-On inducible system in the presence of a non-selective NMDA receptor blocker. On the day of the experiment, cell culture media is carefully washed and the cells are loaded with Calcium 5 Dye Kit (Molecular Devices) in dye loading buffer containing 137 mM NaCl, 4 mM KCl, 2 mM CaCl2, 0.5 mM MgCl2 (standard assay) or 1.5 mM MgCl2 (HTS assay), 10 mM HEPES and 5 mM D-glucose; pH 7.4. After 1 h incubation at the room temperature, the dye is washed away with the assay buffer (137 mM NaCl (standard assay) or 150 mM (HTS assay), 4 mM KCl (standard assay) or 3 mM (HTS assay), 2 mM CaCl2, 0.01 mM EDTA, 10 mM HEPES and 5 mM D-glucose; pH 7.4) In the FLIPR TETRA reader, various concentrations of the test compounds are added to the cells for 5 min while fluorescence is monitored to detect potential agonist activity. Next, co-agonists, glutamate and glycine are added for another 5 minutes. The concentration of glutamate corresponding to ˜EC40 (standard assay) or EC40 (HTS assay) is used to maximize the assay's signal window and ability to detect NMDA receptor antagonists and negative allosteric modulators. A saturating concentration (10 μM) of glycine is also present in the assay. A non-selective NMDA receptor antagonist, (+)MK-801 is used as a positive control for antagonist activity. The fluorescent signal in the presence of test compounds is quantified and normalized to the signal defined by the appropriate control wells.

[2] = biological target: T2, human GluN1/GluN2B NMDA receptors (Homo sapiens, UniProt Q13224); assay: as above; assay type: cell-based; conditions: glutamate ~EC40, 10 μM glycine, stable cell line with Tet-On induced expression
T2 construct: expressed in transfected cells
Description: as §1, §2

T1 sequence (Q13224 27-1484, other chains not shown): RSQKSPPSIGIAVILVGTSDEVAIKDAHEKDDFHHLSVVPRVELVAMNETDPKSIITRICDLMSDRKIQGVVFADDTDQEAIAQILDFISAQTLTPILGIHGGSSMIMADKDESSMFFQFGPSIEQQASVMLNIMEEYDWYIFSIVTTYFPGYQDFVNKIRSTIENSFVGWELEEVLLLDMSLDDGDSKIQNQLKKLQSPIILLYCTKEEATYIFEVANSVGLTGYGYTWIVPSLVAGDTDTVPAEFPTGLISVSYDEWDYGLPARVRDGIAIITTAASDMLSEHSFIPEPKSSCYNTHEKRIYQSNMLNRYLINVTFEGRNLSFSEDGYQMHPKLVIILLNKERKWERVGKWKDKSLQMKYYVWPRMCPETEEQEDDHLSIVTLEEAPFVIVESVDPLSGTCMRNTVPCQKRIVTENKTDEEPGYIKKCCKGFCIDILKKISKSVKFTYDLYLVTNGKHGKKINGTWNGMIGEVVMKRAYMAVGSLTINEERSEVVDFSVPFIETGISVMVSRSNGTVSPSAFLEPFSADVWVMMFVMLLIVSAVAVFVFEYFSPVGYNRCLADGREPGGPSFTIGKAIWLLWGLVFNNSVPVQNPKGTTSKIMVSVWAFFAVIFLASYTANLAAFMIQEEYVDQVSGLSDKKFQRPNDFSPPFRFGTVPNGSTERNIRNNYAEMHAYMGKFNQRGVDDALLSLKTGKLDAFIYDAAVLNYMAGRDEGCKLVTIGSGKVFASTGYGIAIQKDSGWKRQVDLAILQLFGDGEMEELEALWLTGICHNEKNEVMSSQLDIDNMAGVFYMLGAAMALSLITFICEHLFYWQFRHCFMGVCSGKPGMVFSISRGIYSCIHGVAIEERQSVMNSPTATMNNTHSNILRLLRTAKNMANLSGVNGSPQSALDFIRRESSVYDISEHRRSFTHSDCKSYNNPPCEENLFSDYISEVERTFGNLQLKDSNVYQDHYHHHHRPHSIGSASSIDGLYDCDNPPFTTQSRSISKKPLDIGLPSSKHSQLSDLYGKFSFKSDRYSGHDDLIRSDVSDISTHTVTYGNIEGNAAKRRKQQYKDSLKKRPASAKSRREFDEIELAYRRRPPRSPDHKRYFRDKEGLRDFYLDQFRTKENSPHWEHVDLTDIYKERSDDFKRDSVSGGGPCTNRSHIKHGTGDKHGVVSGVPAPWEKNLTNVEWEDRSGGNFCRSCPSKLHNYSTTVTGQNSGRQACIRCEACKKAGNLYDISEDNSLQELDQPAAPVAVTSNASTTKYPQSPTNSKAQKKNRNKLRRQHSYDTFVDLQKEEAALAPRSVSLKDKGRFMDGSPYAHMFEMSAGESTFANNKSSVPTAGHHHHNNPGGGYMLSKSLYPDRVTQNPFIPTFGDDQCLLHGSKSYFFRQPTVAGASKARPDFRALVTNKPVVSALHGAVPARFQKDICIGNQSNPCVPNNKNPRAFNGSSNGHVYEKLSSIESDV
T2 sequence (Q13224 27-1484, other chains not shown): as above

Q: `CN(C)C(=O)C1CN(Cc2cncc(-c3ccc(Cl)c(OC(F)F)c3)n2)C(=O)O1` (racemic) [Example 55, (R/S)-3-[[6-[4-Chloro-3-(difluoromethoxy)phenyl]pyrazin-2-yl]methyl]-N,N-dimethyl-2-oxo-oxazolidine-5-carboxamide] was tested. Which IC50 [1] did it give?
A: 1390 nM

Q: For `CNC(=O)C1CN(Cc2cncc(-c3ccc(Cl)c(OC(F)F)c3)n2)C(=O)O1` (racemic) [Example 56, (R/S)-3-[[6-[4-Chloro-3-(difluoromethoxy)phenyl]pyrazin-2-yl]methyl]-N-methyl-2-oxo-oxazolidine-5-carboxamide], which IC50 [1] is on record?
A: 2050 nM

Q: With `O=C1OC(C(=O)N2CCC2)CN1Cc1cncc(-c2ccc(F)c(C(F)F)c2)n1` (racemic) [Example 58, (R/S)-5-(Azetidine-1-carbonyl)-3-[[6-[3-(difluoromethyl)-4-fluoro-phenyl]pyrazin-2-yl]methyl]oxazolidin-2-one] as the molecule, how does the IC50 [1] read?
A: > 3000 nM

Q: With `CNC(=O)C1CN(Cc2cncc(-c3ccc(F)c(OC(F)F)c3)n2)C(=O)O1` (racemic) [Example 60, (R/S)-3-[[6-[3-(Difluoromethoxy)-4-fluoro-phenyl]pyrazin-2-yl]methyl]-N-methyl-2-oxo-oxazolidine-5-carboxamide] as the molecule, how does the IC50 [1] read?
A: 5390 nM

Q: With `O=C1OC(C(=O)N2CCC2)CN1Cc1cncc(-c2ccc(F)c(OC(F)F)c2)n1` (racemic) [Example 61, (R/S)-5-(Azetidine-1-carbonyl)-3-[[6-[3-(difluoromethoxy)-4-fluoro-phenyl]pyrazin-2-yl]methyl]oxazolidin-2-one] as the molecule, how does the IC50 [1] read?
A: 5740 nM

Q: `CN(C)C(=O)C1CN(Cc2cncc(-c3ccc(F)c(C(C)(F)F)c3)n2)C(=O)O1` (racemic) [Example 62, (R/S)-3-[[6-[3-(1,1-Difluoroethyl)-4-fluoro-phenyl]pyrazin-2-yl]methyl]-N,N-dimethyl-2-oxo-oxazolidine-5-carboxamide] was tested. Which IC50 [1] did it give?
A: 3680 nM

Q: Which IC50 [1] does the source give for `CNC(=O)C1CN(Cc2cncc(-c3ccc(F)c(C(C)(F)F)c3)n2)C(=O)O1` (racemic) [Example 63, (R/S)-3-[[6-[3-(1,1-Difluoroethyl)-4-fluoro-phenyl]pyrazin-2-yl]methyl]-N-methyl-2-oxo-oxazolidine-5-carboxamide] here?
A: > 3000 nM

Q: Which IC50 [1] does the source give for `CC(F)(F)c1cc(-c2cncc(CN3CC(C(=O)N4CCC4)OC3=O)n2)ccc1F` (racemic) [Example 64, (R/S)-5-(Azetidine-1-carbonyl)-3-[[6-[3-(1,1-difluoroethyl)-4-fluoro-phenyl]pyrazin-2-yl]methyl]oxazolidin-2-one] here?
A: > 3000 nM

Q: `CN(C)C(=O)C1CN(Cc2cncc(-c3ccc(F)c(C(F)F)c3)n2)C(=O)O1` (racemic) [Example 65, (R/S)-3-[[6-[3-(Difluoromethyl)-4-fluoro-phenyl]pyrazin-2-yl]methyl]-N,N-dimethyl-2-oxo-oxazolidine-5-carboxamide] was tested. Which IC50 [1] did it give?
A: > 3000 nM

Q: Which IC50 [1] does the source give for `CN(C)C(=O)C1CN(Cc2cncc(-c3ccc(F)c(OC(F)F)c3)n2)C(=O)O1` (racemic) [Example 66, (R/S)-3-[[6-[3-(Difluoromethoxy)-4-fluoro-phenyl]pyrazin-2-yl]methyl]-N,N-dimethyl-2-oxo-oxazolidine-5-carboxamide] here?
A: 141 nM

Q: `CC1(C)CN(Cc2cncc(-c3cccc(C(C)(F)F)c3)n2)C(=O)O1` [Example 39, 3-[[6-[3-(1,1-Difluoroethyl)phenyl]pyrazin-2-yl]methyl]-5,5-dimethyl-oxazolidin-2-one] was tested. Which IC50 [2] did it give?
A: 4510 nM

Q: For `C[C@@H]1CN(Cc2cncc(-c3cccc(C(C)(F)F)c3)n2)C(=O)O1` [Example 40, (5R)-3-[[6-[3-(1,1-Difluoroethyl)phenyl]pyrazin-2-yl]methyl]-5-methyl-oxazolidin-2-one], which IC50 [2] is on record?
A: 39 nM

Q: `C[C@H]1CN(Cc2cncc(-c3cccc(C(C)(F)F)c3)n2)C(=O)O1` [Example 41, (5S)-3-[[6-[3-(1,1-Difluoroethyl)phenyl]pyrazin-2-yl]methyl]-5-methyl-oxazolidin-2-one] was tested. Which IC50 [2] did it give?
A: 167 nM

Q: How did the IC50 [2] turn out when `CC(F)(F)c1cccc(-c2cncc(CN3CCCOC3=O)n2)c1` [Example 42, 3-[[6-[3-(1,1-Difluoroethyl)phenyl]pyrazin-2-yl]methyl]-1,3-oxazinan-2-one] was run?
A: 105 nM

Q: Which IC50 [2] does the source give for `Cc1ncc(-c2cccc(C(C)(F)F)c2)nc1CN1CC2(CC2)OC1=O` [Example 43, 5-[[6-[3-(1,1-Difluoroethyl)phenyl]-3-methyl-pyrazin-2-yl]methyl]-7-oxa-5-azaspiro[2.4]heptan-6-one] here?
A: 203 nM

Q: `Cc1ncc(-c2cccc(C(C)(F)F)c2)nc1CN1CC(C)(C)OC1=O` [Example 44, 3-[[6-[3-(1,1-Difluoroethyl)phenyl]-3-methyl-pyrazin-2-yl]methyl]-5,5-dimethyl-oxazolidin-2-one] was tested. Which IC50 [2] did it give?
A: > 3000 nM

Q: How did the IC50 [2] turn out when `Cc1ncc(-c2cccc(C(C)(F)F)c2)nc1CN1CCCOC1=O` [Example 45, 3-[[6-[3-(1,1-Difluoroethyl)phenyl]-3-methyl-pyrazin-2-yl]methyl]-1,3-oxazinan-2-one] was run?
A: 127 nM

Q: How did the IC50 [2] turn out when `C[C@@H]1COC(=O)N1Cc1cncc(-c2ccc(F)c(C(C)(F)F)c2)n1` [Example 46, (4R)-3-[[6-[3-(1,1-Difluoroethyl)-4-fluoro-phenyl]pyrazin-2-yl]methyl]-4-methyl-oxazolidin-2-one] was run?
A: 166 nM

Q: For `C[C@H]1COC(=O)N1Cc1cncc(-c2ccc(F)c(C(C)(F)F)c2)n1` [Example 47, (4S)-3-[[6-[3-(1,1-Difluoroethyl)-4-fluoro-phenyl]pyrazin-2-yl]methyl]-4-methyl-oxazolidin-2-one], which IC50 [2] is on record?
A: 624 nM

Q: How did the IC50 [2] turn out when `CC(F)(F)c1cccc(-c2cncc(CN3CCC4(CC4)OC3=O)n2)c1` [Example 48, 6-[[6-[3-(1,1-Difluoroethyl)phenyl]pyrazin-2-yl]methyl]-8-oxa-6-azaspiro[2.5]octan-7-one] was run?
A: 124 nM

Q: With `O=C1OC2(CCN1Cc1cncc(-c3ccc(F)c(OC(F)F)c3)n1)CC2` [Example 49, 6-[[6-[3-(Difluoromethoxy)-4-fluoro-phenyl]pyrazin-2-yl]methyl]-8-oxa-6-azaspiro[2.5]octan-7-one] as the molecule, how does the IC50 [2] read?
A: 48 nM

Q: Which IC50 [2] does the source give for `O=C1OC2(CCN1Cc1cncc(-c3ccc(Cl)c(OC(F)F)c3)n1)CC2` [Example 50, 6-[[6-[4-Chloro-3-(difluoromethoxy)phenyl]pyrazin-2-yl]methyl]-8-oxa-6-azaspiro[2.5]octan-7-one] here?
A: 49 nM

Q: How did the IC50 [2] turn out when `O=C1OC2(CCN1Cc1cncc(-c3ccc(F)c(C(F)F)c3)n1)CC2` [Example 52, 6-[[6-[3-(Difluoromethyl)-4-fluoro-phenyl]pyrazin-2-yl]methyl]-8-oxa-6-azaspiro[2.5]octan-7-one] was run?
A: 61 nM

Q: `Cc1ncc(-c2ccc(F)c(C(F)F)c2)nc1CN1CCC2(CC2)OC1=O` [Example 53, 6-[[6-[3-(Difluoromethyl)-4-fluoro-phenyl]-3-methyl-pyrazin-2-yl]methyl]-8-oxa-6-azaspiro[2.5]octan-7-one] was tested. Which IC50 [2] did it give?
A: 102 nM

Q: For `Cc1ncc(-c2ccc(F)c(OC(F)F)c2)nc1CN1CCC2(CC2)OC1=O` [Example 54, 6-[[6-[3-(Difluoromethoxy)-4-fluoro-phenyl]-3-methyl-pyrazin-2-yl]methyl]-8-oxa-6-azaspiro[2.5]octan-7-one], which IC50 [2] is on record?
A: 74 nM

Q: How did the IC50 [2] turn out when `O=C1OC(C(=O)N2CCC2)CN1Cc1cncc(-c2ccc(Cl)c(OC(F)F)c2)n1` (stereo not shown) [Example 57, 5-(Azetidine-1-carbonyl)-3-[[6-[4-chloro-3-(difluoromethoxy)phenyl]pyrazin-2-yl]methyl]oxazolidin-2-one] was run?
A: 2000 nM

Q: `O=C1OC2(CNC2)CN1Cc1cncc(-c2ccc(Cl)c(OC(F)F)c2)n1` [Example 67, 6-[[6-[4-Chloro-3-(difluoromethoxy)phenyl]pyrazin-2-yl]methyl]-8-oxa-2,6-diazaspiro[3.4]octan-7-one] was tested. Which IC50 [2] did it give?
A: 530 nM

Q: Which IC50 [2] does the source give for `CN1CC2(C1)CN(Cc1cncc(-c3ccc(Cl)c(OC(F)F)c3)n1)C(=O)O2` [Example 68, 6-[[6-[4-Chloro-3-(difluoromethoxy)phenyl]pyrazin-2-yl]methyl]-2-methyl-8-oxa-2,6-diazaspiro[3.4]octan-7-one] here?
A: 599 nM
